Laboratory results taken from PMC3684770 (Free Radical Biology & Medicine, 2013).
Several values for one entry are separate records, joined by “and”; a condition that tells them apart may be missing. Equal values may be shown once. Where a name gives a salt, the structure may show the parent alone.

What was measured:
[1] = Pharmacokinetic analysis in C57Bl/6 mice; format: in vivo, mouse; conditions: 1 mg/kg
Method: Pharmacokinetic studies were performed by Pharmidex (London, UK). […] All concentrations were calculated with reference to the relevant standard curve. An extraction buffer (EB) solution of acetonitrile with 0.1% formic acid (Fisher Scientific, HPLC grade) and 500 ng/ml of propranolol as the internal standard (IS) was used for in all extraction protocols.

[2] = cited from earlier work
[3] = system: primary fibroblasts from ALS patients; test: Oxidative stress assay in ALS patient and control fibroblasts; format: cell-based, human; conditions: 3.7 or 0.41 µM, 24 h
Method: Fibroblasts were obtained from human controls (n=3) and ALS patients with I113T SOD1 mutations (n=3) and sporadic ALS patients (n=2). […] The cells were incubated at 37 °C/5% CO2 overnight. The following day the media were removed and the cells were washed with 200 µl 1XP BS. Phenol red-free DMEM/F12 media (Sigma D6434) was added in the presence of 10% serum/2 mM Gln (++), 10% serum/0 mM Gln (+−), or 0% serum/0 mM Gln (−−). Cells were incubated at 37 °C/5% CO2 for 5 h.
Carboxy-H2DCFDA fluorescence was normalised to live cell number (total EthD1 signal after freeze/thaw – EthD1 signal after assay) to compare between the different cell lines. Data were analysed by one-way ANOVA with Bonferroni post tests using GraphPad Prism
DMEM/F12 (50 µl) media were added in the presence of 10% serum/0 mM Gln (+−) and the cells were incubated at 37 °C and 5% CO2 for 5 h.
The data were tested for normality and analysed by one-way ANOVA using GraphPad Prism.

[4] = mouse ref 73; cited from earlier work
NSC34 cells = test: NSC34 oxidative stress assay (serum withdrawal, DCF); conditions: for Emax: NSC-34, 24 h, read-out: NSC34 oxidative stress assay Max reduction; for NSC34 oxidative stress assay Toxic dose: minimum dose at which toxicity was observed
Method: (§2) Media were then replaced with serum-free, phenol-free media for 5 h.

Nrf2-ARE pathway [5] = test: ARE reporter assay in CHO 4xARE-TK-GFP cells (Spectrum library hits); conditions: for Toxic dose: lowest dose at which a reduction in GFP fluorescence was observed
[6] = system: 1321N1 astrocyte cell line; test: 1321N1 oxidative stress assay (serum withdrawal, DCF); conditions: for Emax / IC50: Homo sapiens; for Emax: 1321-N1, 24 h, read-out: 1321N1 oxidative stress assay Max reduction; for IC50: 1321-N1, read-out: 1321N1 oxidative stress assay IC50; for 1321N1 oxidative stress assay Toxic dose: minimum dose at which toxicity was observed
Method: as §2

[7] = system: HO-1 and NQO1 gene expression; test: Q-RTPCR of Nrf2-regulated genes in primary mouse astrocytes; format: cell-based; conditions: 24-h treatment at EC50 and EC90
Method: (§1) Nrf2 Target gene expression was determined using Q-RTPCR as described previously using the following primers: Ho-1 forward primer, cac ttc gtc aga ggc ctg cta; Ho-1 reverse primer, gcg gtg tct ggg atg agc ta; Nqo1 forward primer, cgc ctg agc cca gat att gt; Nqo1 reverse primer, act gca atg gga act gaa ata tca; GAPDH forward, gaa acc tgc caa gta tga tga cat; GAPDH reverse, ggt cct cag tgt agc cca aga t.

primary mouse astrocytes = test: Total glutathione assay in primary mouse astrocytes and conditioned media; format: cell-based; conditions: 24-h pretreatment
Method: Primary astrocytes were grown to confluency in 24-well plates and then treated with drug (or 0.05% DMSO vehicle) in phenol red-free DMEM containing 10% FBS and penicillin/streptomycin for 24 h. Conditioned medium was collected and astrocytes were then washed in ice-cold PBS before addition of 250 μl/well of sulphosalicylic acid (SSA, 5% (w/v)). Plates were frozen at −80 °C and thawed at 37 °C, twice, and then incubated at 4 °C for 15 min. The supernatant was removed and centrifuged at 13,000 g for 5 min. Conditioned medium samples were incubated at 80 °C for 15 min and then centrifuged at 13,000 g for 5 min. Samples were either used immediately or stored at −80 °C. Reaction mixture (150 μl/well; 100 mM potassium phosphate buffer, pH 7.0, 1 mM EDTA, 6 Units/ml glutathione reductase, 1.5 mg/ml 5,5′-dithiobis(2-nitrobenzoic acid)) was added to 10 μl of each sample or glutathione standard (0–50 μM reduced glutathione) in a 96-well plate and incubated at room temperature for 5 min before addition of 50 μl/well of NADPH solution (0.16 mg/ml). A412nm was measured every minute for 15 min and the total glutathione concentration (GSH + GSSG) was calculated from initial rates. Samples were tested in triplicate.

[8] = system: primary mouse motor neurons; test: Primary motor neuron/astrocyte coculture, menadione stress; format: cell-based; conditions: 24-h pretreatment, 6 h 10 µM menadione
Method: Mouse glial cultures were established based on published methods [[68,69]]. Primary spinal cord motor neurons (MNs) were cultured from E13.5 C57Bl/6 mouse embryos as described previously. Cocultures were allowed to establish for 2 weeks and neuroprotection assays performed. Cocultures were exposed to drug or vehicle for 24 h followed by a 6-h treatment with menadione (10 μM) to induce oxidative stress or with no stress to determine the effect of drug alone. Following stress treatment, coverslips were washed 3 times, fixed, and permeabilised, and MNs immunostained with SMI32 (Covance, UK). Total MNs were counted by fluorescence microscopy in a 1.5 cm^2 area per coverslip. A minimum of three repeats in triplicate were performed per condition. Both vehicle and drug treatments were counted with and without stress treatment, and results were analysed by two-way ANOVA using Bonferroni post tests.

C6 astrocyte cell line = test: C6 oxidative stress assay (serum withdrawal, DCF); conditions: for Emax / IC50: Rattus norvegicus, Astrocyte; for Emax: 24 h, read-out: C6 oxidative stress assay Max reduction; for IC50: read-out: C6 oxidative stress assay IC50; for C6 oxidative stress assay Toxic dose: minimum dose at which toxicity was observed
Method: as §2

P-glycoprotein = system: P-glycoprotein; set-up: method as in PMID 19093450; conditions: cited from earlier work
[9] = system: NQO1 and HO-1 gene expression; test: Q-RTPCR in astrocytes from SOD1G93A transgenic mice; format: cell-based, mouse; conditions: G93A SOD1 astrocytes, 24-h pretreatment at EC90 (andrographolide also EC50)
Method: as §1

heme oxygenase 1 (HO-1) = test: HO-1 immunofluorescence staining in primary mouse astrocytes; format: cell-based; conditions: EC90 concentration, 24 h
[10] = system: HO-1 and NQO1 gene expression; test: Q-RTPCR of Nrf2-regulated genes in C6 cells; format: cell-based, rat; conditions: C6, 24-h treatment at EC50 and EC90
Method: as §1

NQO1 protein expression = test: Western blot NQO1 in wild-type MEFs; format: cell-based, mouse; conditions: EC90 concentration, 24 h
Method: Cells were isolated and lysed in a RIPA buffer containing protease inhibitor cocktail (Roche), quantified for protein content by Bradford assay, and loaded 30 μg per sample. Samples were run on a 12.5% acrylamide gel under reducing conditions with a prestained marker and transferred to polyvinylidene fluoride membrane and blocked in 5% milk. Mouse anti-alpha-tubulin, clone DM1A (Sigma), and rabbit anti-NQO1 (kind gift from Prof. John Hayes, University of Dundee) were used at 1 in 1000 dilution in Tris-buffered saline containing Tween. Polyclonal goat anti-mouse (Abcam-Ab97040) and polyclonal goat anti-rabbit (Dako Cat. No. P0448), horseradish peroxidase-conjugated secondary antibodies were used for detection of relevant primary antibodies. Bands were visualised by enhanced chemiluminescence reagents (Geneflow EZ-ECL kit). Relative band intensities were captured, using subsaturation, and quantified using a Gbox iChem XT digital imaging system (Syngene).

D4 receptors = conditions: read-out: Ki D4 receptors; cited from earlier work
D1 receptors = conditions: read-out: Ki D1 receptors; cited from earlier work
Nrf2-ARE pathway [11] = test: ARE reporter assay in C6 astrocyte cell line (C6-ARE); format: cell-based, rat; conditions: C6-ARE, highest dose
From the text: Chinese hamster ovary (CHO), NSC34 mouse motor neuronal cells […] The ARE-TK-GFP and TK-GFP reporter constructs were a kind gift from William E. Fahl McArdle Laboratory for Cancer Research, University of Wisconsin. […] The NSC34 cell lines stably expressing G93A mutant hSOD1 have been described previously. […] Mouse embryonic fibroblasts were generated and maintained as described previously.

In the case of `CN1CCc2cccc3c2[C@H]1Cc1ccc(O)c(O)c1-3` [apomorphine], the Kp ([1]; C57Bl/6, mouse, brain / plasma, intravenous, read-out: brain:plasma (Kp)) is listed as 2.1, the clearance ([1]; C57Bl/6, plasma, mouse, iv) is listed as 109 mL/min/kg and the “fraction absorbed following subcutaneous dosing” value ([2]; humans ref 75) is listed as 1. For the same compound, the “Tmax following subcutaneous dosing” value ([2]; humans ref 76) was 8 to 16 min, the “cell number compared to DMSO control” value [3] was “no effect on cell number” and the “plasma protein binding fraction (unbound)” value [4] was 0.222.

For `C=C1CC[C@@H]2[C@](C)(CO)[C@H](O)CC[C@@]2(C)[C@@H]1C/C=C1/C(=O)OC[C@H]1O` [Andrographolide], the Emax (NSC34 cells; Mus musculus) was 0%, the “NSC34 oxidative stress assay Toxic dose” value (NSC34 cells) was 10 µM and the EC50 (Nrf2-ARE pathway [5]; Cricetulus griseus) was 740 nM. The maximal fold induction (Nrf2-ARE pathway [5]; Cricetulus griseus, CHO, 24 h, read-out: Fold GFP induction) was 3.61, the Toxic dose (Nrf2-ARE pathway [5]) was 100 µM and the Emax [6] was 35%. The IC50 [6] was 501 nM, the “1321N1 oxidative stress assay Toxic dose” value [6] was 10 µM and the “HO-1 and NQO1 gene expression” value [7] was “statistically significant changes in gene expression”. The total glutathione levels (primary mouse astrocytes) was “enhance glutathione production”, the “motor neuron numbers after menadione” value [8] was “significant neuroprotective effects” and the Emax (C6 astrocyte cell line) was 69%. The IC50 (C6 astrocyte cell line) was 192 nM, the “C6 oxidative stress assay Toxic dose” value (C6 astrocyte cell line) was 10 µM and the P-glycoprotein substrate (P-glycoprotein) was “substrate”. The “transcripts for NQO1 and HO1” value [9] was “significant increase in transcripts”, the HO-1 staining index (heme oxygenase 1 (HO-1)) was “significant increase in HO-1 staining” and the “HO-1 and NQO1 gene expression” value [10] was “statistically significant changes in gene expression”. The “NQO1 protein expression, fold over vehicle” value (NQO1 protein expression) was 3.6 fold and > 3 fold.

With `CN1CCc2cccc3c2[C@H]1Cc1ccc(O)c(O)c1-3` [Apomorphine hydrochloride, reference compound] the Emax (NSC34 cells; Mus musculus) was 25%, the IC50 (NSC34 cells; Mus musculus, NSC-34, read-out: NSC34 oxidative stress assay IC50) was 174 nM and the “NSC34 oxidative stress assay Toxic dose” value (NSC34 cells) was 10 µM. For the same compound, the EC50 (Nrf2-ARE pathway [5]; Cricetulus griseus) was 25900 nM, the Toxic dose (Nrf2-ARE pathway [5]) was 100 µM and the Ki (D4 receptors) was 4.4 nM. The Emax [6] was 79%, the IC50 [6] was 1700 nM and the “1321N1 oxidative stress assay Toxic dose” value [6] was “None”. The Emax (C6 astrocyte cell line) was 62%, the IC50 (C6 astrocyte cell line) was 1690 nM and the “C6 oxidative stress assay Toxic dose” value (C6 astrocyte cell line) was “None”. For the same compound, the Ki (D1 receptors) was 370 nM and the dose showing toxicity (Nrf2-ARE pathway [11]) was 30 µM.
